{"source": "ChEMBL document CHEMBL4130348", "about": "“Structure-activity relationship investigation for benzonaphthyridinone derivatives as novel potent Bruton's tyrosine kinase (BTK) irreversible inhibitors” (Eur J Med Chem, 2017)", "key": {"[1]": {"molecular_target": "Tyrosine-protein kinase Blk (Homo sapiens, UniProt P51451)", "sequence (P51451 whole entry)": "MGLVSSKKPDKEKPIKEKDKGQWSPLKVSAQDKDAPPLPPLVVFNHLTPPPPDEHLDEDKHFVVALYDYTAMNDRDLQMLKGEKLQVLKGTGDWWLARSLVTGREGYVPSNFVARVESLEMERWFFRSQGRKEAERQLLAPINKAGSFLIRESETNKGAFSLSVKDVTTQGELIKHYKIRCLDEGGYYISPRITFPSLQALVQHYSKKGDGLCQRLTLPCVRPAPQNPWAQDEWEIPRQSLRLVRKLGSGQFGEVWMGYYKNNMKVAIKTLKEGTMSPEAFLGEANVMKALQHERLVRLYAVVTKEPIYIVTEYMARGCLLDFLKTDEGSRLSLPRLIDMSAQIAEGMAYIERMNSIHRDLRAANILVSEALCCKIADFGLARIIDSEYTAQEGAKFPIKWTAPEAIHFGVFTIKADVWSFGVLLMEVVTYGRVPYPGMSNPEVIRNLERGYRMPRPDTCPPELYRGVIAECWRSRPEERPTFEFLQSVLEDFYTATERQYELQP", "assay": "Inhibition of recombinant full length His-tagged human BLK expressed in baculovirus expression system using poly (4:1 Glu, Tyr) as substrate preincubated for 1 hr followed by substrate addition measured after 1 hr by ADP-glo assay"}, "Ramos": {"test_system": "Ramos", "assay": "Induction of apoptosis in human Ramos cells assessed as PARP cleavage up to 10 uM after 48 hrs by immunoblot method", "type": "functional, cell-based"}, "Pfeiffer": {"test_system": "Pfeiffer", "assay": "Induction of apoptosis in human Pfeiffer cells assessed as caspase-3 cleavage up to 10 uM after 48 hrs by immunoblot method", "type": "functional, cell-based"}, "[2]": {"molecular_target": "T1, Tyrosine-protein kinase BTK (Homo sapiens, UniProt Q06187)", "T1 sequence (Q06187 whole entry)": "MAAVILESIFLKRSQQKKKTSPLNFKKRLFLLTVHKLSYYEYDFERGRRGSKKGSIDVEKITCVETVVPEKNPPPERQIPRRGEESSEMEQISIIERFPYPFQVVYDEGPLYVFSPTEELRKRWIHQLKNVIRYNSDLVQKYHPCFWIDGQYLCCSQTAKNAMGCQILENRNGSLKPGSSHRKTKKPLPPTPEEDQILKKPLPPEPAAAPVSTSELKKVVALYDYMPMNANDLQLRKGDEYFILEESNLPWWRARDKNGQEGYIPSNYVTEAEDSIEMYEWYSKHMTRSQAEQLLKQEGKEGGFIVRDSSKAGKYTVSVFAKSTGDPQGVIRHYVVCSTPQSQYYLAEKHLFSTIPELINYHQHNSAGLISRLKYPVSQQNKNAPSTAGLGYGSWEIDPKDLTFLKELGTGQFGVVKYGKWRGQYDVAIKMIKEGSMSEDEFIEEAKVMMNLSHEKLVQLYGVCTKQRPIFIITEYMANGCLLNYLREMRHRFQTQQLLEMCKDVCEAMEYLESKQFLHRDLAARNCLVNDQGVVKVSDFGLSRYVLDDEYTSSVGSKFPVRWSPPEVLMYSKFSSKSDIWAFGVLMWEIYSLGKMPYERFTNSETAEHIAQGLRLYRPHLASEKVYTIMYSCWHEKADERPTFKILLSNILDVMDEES", "assay": "Inhibition of BTK transphosphorylation at Y551 in anti-IgM stimulated human Pfeiffer cells at 100 to 1000 nM after 4 hrs by chemiluminescence assay", "type": "cell-based"}, "[3]": {"molecular_target": "T1, Tyrosine-protein kinase BTK", "assay": "Inhibition of BTK in anti-IgM stimulated human Pfeiffer cells assessed as decrease in PLCgamma2 phosphorylation at Y1217 at 100 to 1000 nM after 4 hrs by chemiluminescence assay", "type": "cell-based"}, "[4]": {"molecular_target": "T1, Tyrosine-protein kinase BTK", "assay": "Inhibition of BTK transphosphorylation at Y551 in anti-IgM stimulated human MOLM13 cells at 100 to 1000 nM after 4 hrs by chemiluminescence assay"}}, "note": "The source made the active and inactive calls. No cut-off for these calls is given here."}
{"smiles": "C=CC(=O)Nc1cc(-n2c(=O)ccc3cnc4ccc(-n5cccn5)cc4c32)ccc1C", "values": [{"measurement": "IC50", "setting": "[1]", "result": "> 10", "unit": "µM"}, {"measurement": "Activity", "setting": "Ramos", "result": "Active"}, {"measurement": "Activity", "setting": "Pfeiffer", "result": "Active"}, {"measurement": "inhibition", "setting": "[2]", "result": "inactive"}, {"measurement": "inhibition", "setting": "[3]", "result": "inactive"}, {"measurement": "inhibition", "setting": "[4]", "result": "inactive"}]}
